Measurements as given in patent US20050059639A1, “Ophthalmic compositions and method for treating eye discomfort and pain” (priority 2003, published 2005).
Marks after values point to notes of the source that are not given here. Blank lines part the entries; values can stand above or below the compound they belong to.

How the values were obtained:
dry eyes = assay: Eye drops in contact lens user with dry eyes; type: in vivo, human; conditions: 0.2% solution with 0.5% carboxymethylcellulose
Excerpt: The subject of example 4 is a daily user of disposable soft contact lenses, has “dry eyes”, and is a constant user of Refresh Eyes®, an artificial tears solution with 0.5% carboxymethylcellulose stored in a unit dispenser. They were instructed on how to instill the eye drops into the nasal corner (medial canthus) of their closed eyes and how to avoid the initial discomforts of the solution. The subject, who is an internationally-ranked tennis player, volunteered to self-administer, by the medial canthus/closed eye method, a 0.2% solution disec-butyl-n-hexyl-phosphine oxide ophthalmic solution containing 0.5% carboxymethylcellulose.

[1] = test system: closed eyes of volunteers; assay: Eye drops applied to medial canthus of closed eyes, kept closed about 1 min; type: in vivo, human
Experimental: (§1) For trialkyl phosphine oxide eye drop solutions of this invention, I have discovered an indirect method of application as follows. The eye dropper is aimed at the medial canthus (nasal corner) of the eye, the eye is then closed, the dispenser is squeezed to emit the eye drops, and the eye kept closed for about 1 min. This method of application can substantially avoid stinging and burning sensations. Apparently, the adaptation period of about 1 min allows the sensory processes to develop tolerance to the initial stinging and burning stimuli. For example, if a 0.4 mg/ml solution of disec-butyl, n-hexyl-phosphine oxide [synonym, 1-(Di-sec-butyl-phosphinoyl)-hexane] in isotonic-buffered saline is dropped on the open eye, it causes stinging and burning for about 1 min. However, applied onto the corners of the eye, with the eyes closed for 1 min, these stinging and burning sensations are avoided. The medial canthus is preferred to the lateral canthus because the geometry of the orbit permits a longer residence time for the eye drop applied to the medial corner. Drops applied to the lateral canthus are less precisely located and rapidly dribble off the zygoma (cheekbone). A user can be instructed in this indirect method by including the instructions on packaging labels and/or inserts associated with the doses.
The solution, as in Example 1, was then used by another three subjects with the instruction to apply the droplets to the nasal corner of the eye (medial canthus), without touching the tip of the dispenser to the eyelid surface, to let the solution seep into the eyelids and eye surface but to keep eyes closed for at least one minute. The subjects reported slight sensations of stinging when the eyes were opened, effects that lasted for less than 1 minute, followed by sensations of coolness and comfort lasting at least two hours. The experiment was then repeated, but with a higher concentration of 0.2% of disec-butyl-n-hexyl-phosphine oxide.
A 0.2% (2.0 mg/ml) disec-butyl-n-heptyl-phosphine oxide eye drop solution was prepared by adding the compound to an isotonic solution of sodium chloride, 0.65% in deionized water, monobasic potassium phosphate/sodium hydroxide buffer, preserved with disodium EDTA and benzalkonium chloride. The liquid was individually aliquoted into a ¼ oz. bottle with a Yorker spout (E.D. Luce Packaging) suitable for droplet delivery. This solution was then applied to the closed eyes of three volunteers, with two to three drops of the solution applied to each eye. The subjects complained of stinging and burning sensations on the eye surface, lasting for about 2 min. A series of six solutions were then prepared in which six different hydrocarbon polyols were added to the parent 0.2% solution. The individual additions were 1.5% sucrose, 1.5% fructose, 1.5% dextrose, 1.5% lactose, 1.5% inositol, or 0.5% carboxymethylcellulose. […] There was some tearing, but no evidence of increased eye redness from the hydrocarbon polyols and subjective complaints of discomfort were minimal.

[2] = test system: tongue of human volunteers; assay: Cooling sensations when applied to the tongue of human volunteers; type: in vivo; conditions: for Duration of Action: duration of the cooling action on the tongue; for Relative Potency: reciprocal of threshold, normalized to unity for analogs with 1.25 μg/ml; for Threshold: threshold for producing cooling sensations on the tongue of human volunteers
Experimental: (§2) The therapeutic concentrations of the preferred analogs are in the range of 10 to 80 μg/ml […], but concentrations as low as 0.1 μg/ml may elicit effects in sensitive individuals.

[3] = test system: opened eyes of volunteers; assay: Eye drops applied directly to the opened eyes of volunteers; type: in vivo, human
Experimental: as §1
A 0.05% (0.5 mg/ml) disec-butyl-n-hexyl-phosphine oxide eye drop solution was prepared by adding the compound to an isotonic solution of sodium chloride, 0.65% in deionized water, monobasic potassium phosphate/sodium hydroxide buffer, preserved with disodium EDTA and benzalkonium chloride. The liquid was individually aliquoted into a ¼ oz. bottle with a Yorker spout (E.D. Luce Packaging) suitable for droplet delivery. This solution was applied to the opened eyes of three volunteers, with two to three drops of the solution applied to each eye. The subjects complained of stinging and burning sensations on the eye surface, lasting for about 2 min and requiring the subjects to shut their eyes. […]

eye disorders = assay: Estimate of ideal therapeutic eye drop concentration to relieve eye disorders; type: in vivo, human; conditions: estimate of ideal therapeutic concentration applied as eye drops to relieve eye disorders
Experimental: as §2
The potency of certain specific trialkyl phosphine oxides, e.g. isopropyl, sec-butyl, n-octyl-phosphine oxide, in relieving eye discomfort is exceptionally high, on the order of 0.001%. In such situations, an alternative preferred description of an effective unit dose is 0.01 mg/ml or 10 μg/ml, which is equivalent to 0.001% weight percent.

[4] = test system: medial canthus of the eyelids; assay: Sensory quality of the solution on the medial canthus of the eyelids / eye surface; type: in vivo, human; conditions: solution applied on the medial canthus of the eyelids
Excerpt: [table] In selecting a particular analog, it is desirable to have one that has a long duration of action (several hours) and minimal stinging and burning sensations. These parameters are not predicted by the cooling effect of these substances on the human tongue, but must be determined by experiment. […] Thus, the hexyl analog is the preferred therapeutic of the two. The other particularly preferred analogs that have the desired qualities of long duration of action and absence of stinging and burning effects are identified with an asterisk in Table 1.

ocular pain = assay: Eye drops for ocular pain after refractive eye surgery (LASIK); type: in vivo, human
Excerpt: A subject, underwent bilateral refractive eye surgery (LASIK) for myopia in order to maintain their qualifications for special duties in the military. On the first day after surgery their eye surfaces and eyelids were bright red from dilated and enlarged blood vessels, but there was little pain. However, on the second day, the individual suffered excruciating pain from their eyes that was incapacitating and prevented them from going to work. This individual volunteered to apply eye drops of a 0.05% solution disec-butyl-n-hexyl-phosphine oxide ophthalamic into each eye for about every 6 hours for three days. They were instructed on how to instill the eye drops into the nasal corner (medial canthus) of their closed eyes and how to avoid the initial discomforts of the solution. […] They felt much better and was of the opinion that the eye drops had therapeutic value for ocular pain.

skin of upper eyes = assay: Application to skin of the upper eyes by swabstick (eye strain, contact lens user); type: in vivo, human
Experimental: Another modification of drug delivery was discovered. […] Example 4 notes that topical application of a 5% solution of a trialkyl phosphine oxide dissolved in pure propylene glycol produces robust cooling when applied in this manner.
A subject was stuck in traffic for over 2 hours on a hot and sunny (95° to 97° F.) day in an old car without air-conditioning. They were a user of soft contact lenses. […] They wanted to go on-line to work on a database project, but their eyestrain hindered their ability to focus. They volunteered to apply onto the skin of their upper eyes a 5% solution of disec-butyl-n-hexyl-phosphine oxide dissolved in 100% propylene glycol. A cotton swabstick was used to dab the solution onto the surfaces of the skin with extra care not touch the margins of the eyelids or eye surface. After drug application, a robust cooling sensation developed in the eyes that lasted for about 3 hours. […] They also reported that they felt more alert and energetic.

conjunctivitis = assay: Eye drops in subjects with allergic conjunctivitis; type: in vivo, human; conditions: for stinging sensations: 0.1% solution, medial canthus/closed eye, about every 8 hours
Excerpt: A subject, suffered from seasonal allergy. During the months of March through May, they would wake up in the morning sneezing, with a runny nose, and itchy eyes. The rhinitis, nasal congestion and obstruction were relieved to some extent by taking a Claritin® antihistamine tablet, but the symptoms of itchy, tearing, and red eyes were not. This individual applied, by the medial canthus/closed eye method in which they had been instructed, several drops of a 0.1% solution disec-butyl-n-pentyl-phosphine oxide ophthalmic eye drop solution, into each eye about every 8 hours for two days. […] They felt more clear-sighted and vigilant, and was of the opinion that the eye drops had therapeutic value for their conjunctivitis. Similar results were obtained with 3 additional subjects suffering from ocular allergies. A subject, suffered from perennial rhinitis that was aggravated by sinusitis, nasal surgery, and a prolonged course of antibiotics. They developed a generalized allergic condition with severe itchy rash on their back, dermatitis on their face (especially on their cheeks), and had itchy, puffy and red eyes. This individual applied, by the medial canthus/closed eye method in which they had been instructed, several drops of a 0.1% solution disec-butyl-pentyl-phosphine oxide ophthalmic solution into each eye for about every 8 hours for three days. […] The subject was of the opinion that the eye drops had therapeutic value for their conjunctivitis.

[5] = 0.2% solution, medial canthus/closed eye
[6] = 0.1% solution every 8 hours for two days, seasonal allergy

tearing (dry eyes): no increased tearing
stinging and burning sensations ([1]; 0.4 mg/ml applied onto corners of the eye, eyes closed for 1 min): avoided
duration of slight stinging when eyes were opened ([1]; 0.05% solution, medial canthus, eyes closed at least one minute, three subjects): less than 1 minute
sensations of stinging and burning vs 0.05% [1, 5]: slightly increased
duration of stinging and burning ([3]; 0.4 mg/ml in isotonic-buffered saline dropped on the open eye): about 1 min
duration of stinging and burning sensations on the eye surface ([3]; 0.05% (0.5 mg/ml) solution, 2-3 drops, opened eyes, three volunteers): about 2 min
redness / vasodilatation on eye surface or eyelids ([3]; 0.05% solution, opened eyes): no evidence of increased redness
SMILES: CCCCCCP(=O)(C(C)CC)C(C)CC (stereo not shown) [n-C6H13 / sec-C4H9 / sec-C4H9, 1-(Di-sec-butyl-phosphinoyl)-hexane]
effect on eye dryness (subject's opinion) (dry eyes): useful to alleviate eye dryness
reported sensations (dry eyes; medial canthus/closed eye, one subject): slight tingling in their eyelids followed by refreshing sensations in their eyelids and eye surface
duration of sensations of coolness and comfort ([1]; 0.05% solution, medial canthus/closed eye): at least two
tearing, irritation or redness [1, 5]: no signs of tearing was observed, nor of signs of irritation or redness
Duration of Action [2]: 20 min
potency on the human tongue (comparison of the two analogs) ([2]; hexyl vs heptyl analog): about equipotent
Relative Potency [2]: 1
Threshold [2]: 1.25 µg/mL
Eye Therapy (eye disorders): 45 µg/mL
Sensory Quality [4]: cool/sting
adverse effects (ocular pain; 0.05% solution about every 6 hours for three days after LASIK): no significant adverse effects
acute pain from the eye surface (ocular pain; 0.05% solution about every 6 hours for three days, second day after LASIK, medial canthus/closed eye): significantly diminished within minutes
duration of robust cooling sensation in the eyes (skin of upper eyes; 5% solution in 100% propylene glycol dabbed on skin of upper eyes, one subject): about 3 hours
effect on eye fatigue, irritation and discomfort (skin of upper eyes; 5% solution in 100% propylene glycol on skin of upper eyes): alleviated their sense of eye fatigue, irritation, and discomfort

stinging sensations (conjunctivitis): initial mild sensation of “stinging”
stinging sensations (conjunctivitis; listed as disec-butyl-pentyl-phosphine oxide): No significant stinging sensations
SMILES: CCCCCP(=O)(C(C)CC)C(C)CC (stereo not shown) [n-C5H11 / sec-C4H9 / sec-C4H9, disec-butyl-n-pentyl-phosphine oxide]
effect on eye discomfort (conjunctivitis; 0.1% solution every 8 hours for three days, generalized allergic condition): relief of discomfort
itching (conjunctivitis; [6]): substantially reduced
redness (conjunctivitis; [6]): diminished
Duration of Action [2]: 10 min
Relative Potency [2]: 1
Threshold [2]: 1.25 µg/mL
Eye Therapy (eye disorders): 60* μg/ml
Sensory Quality [4]: cool only
